Source: patent US5578567A, “Nasal pharmaceutical composition” (Sandoz Ltd., priority 1990, dated 1996)

Assay: bioavailability study, serum [1-38]hPTH by radioimmunoassay
Assay type: in vivo, rhesus monkeys
Details: monkeys, nasal administration
Experimental: Compositions of Examples 1A, 6 and 9 are administered nasally to rhesus monkeys (n=5) at a dose of 100 μg/kg [1-38]hPTH. A reference composition comprising
and buffered to pH 5.5 with Na2 HPO4 /citric acid is administered i.v. at a dose of 10 μg/kg.
Blood is taken after 10, 20, 30, 45, 60, 90, 240 and 360 min after administration and stored deep frozen at -80° C. until analysed. [1-38]hPTH concentrations in serum are analysed using radioimmunoassay techniques providing a limit of detection of 0.2-0.1 ng/ml. In addition urine is collected and stored deep frozen at -80° C. until analysis of cAMP by RIA techniques.

Structure (SMILES): CC[C@H](C)[C@H](NC(=O)[C@H](CCC(=O)O)NC(=O)[C@H](CO)NC(=O)[C@@H](NC(=O)[C@@H](N)CO)C(C)C)C(=O)N[C@@H](CCC(N)=O)C(=O)N[C@@H](CC(C)C)C(=O)N[C@@H](CCSC)C(=O)N[C@@H](Cc1c[nH]cn1)C(=O)N[C@@H](CC(N)=O)C(=O)N[C@@H](CC(C)C)C(=O)NCC(=O)N[C@@H](CCCCN)C(=O)N[C@@H](Cc1c[nH]cn1)C(=O)N[C@@H](CC(C)C)C(=O)N[C@@H](CC(N)=O)C(=O)N[C@@H](CO)C(=O)N[C@@H](CCSC)C(=O)N[C@@H](CCC(=O)O)C(=O)N[C@@H](CCCNC(=N)N)C(=O)N[C@H](C(=O)N[C@@H](CCC(=O)O)C(=O)N[C@@H](Cc1c[nH]c2ccccc12)C(=O)N[C@@H](CC(C)C)C(=O)N[C@@H](CCCNC(=N)N)C(=O)N[C@@H](CCCCN)C(=O)N[C@@H](CCCCN)C(=O)N[C@@H](CC(C)C)C(=O)N[C@@H](CCC(N)=O)C(=O)N[C@@H](CC(=O)O)C(=O)N[C@H](C(=O)N[C@@H](Cc1c[nH]cn1)C(=O)N[C@@H](CC(N)=O)C(=O)N[C@@H](Cc1ccccc1)C(=O)N[C@H](C(=O)N[C@@H](C)C(=O)N[C@@H](CC(C)C)C(=O)NCC(=O)O)C(C)C)C(C)C)C(C)C [[1-38]hPTH, hPTH[1-38]]
- serum levels reached, based on serum concentration and cumulative urinary excretion: therapeutic [1-38]hPTH serum levels are achieved
